Data published in patent publication US20240382600A1, “BIFUNCTIONAL DEGRADERS COMPRISING A TEAD BINDER” (Novartis AG, priority 2021, published 2024).
pIC50: −log10 of the molar value.

Assays:
[1] = tested on: SF268-MCAT_Luc_dox-i-shYAPLevy (Clone 13) cells; experiment: Proliferation assay (resazurin/AlamarBlue), SF268; format: cell-based; settings: Homo sapiens, SF-268; SF268, 72 hours
[2] = tested on: YAP-dependent transcription in NCI-H2052 Tet-On shYAP_2371 pLenti6 MCAT_Luc cells; experiment: YAP reporter gene activity assay (MCAT-Luc), NCI-H2052; format: cell-based; settings: Homo sapiens, 24 hrs
MKN-45/Ubc-luc cells = experiment: Proliferation assay (resazurin/AlamarBlue), MKN-45; format: cell-based; settings: Homo sapiens; MKN-45, 72 hours
Method in brief: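 MKN-45 cells carrying constitutive Ubc-driven luciferase reporter, treated the day after seeding with eleven 2-fold dilutions (0.1% DMSO) for 72 h at 37 °C. Viability by resazurin, referenced to day-0 plate; GI50 from % growth (100 none, 0 stasis, −100 kill) and residual viability at top concentration.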

[3] = molecular target: Avi-humanTEAD4^217-434 / Cy5 labeled humanYAP^60-100 (Homo sapiens (Human), UniProt Q15561); experiment: In-vitro biochemical TR-FRET assay (TEAD4/YAP); format: binding; settings: 1 h at room temperature
[4] = molecular target: TEAD1-GFP in HEK293A cells (Homo sapiens (Human), UniProt P28347); experiment: TEAD1 protein abundance flow cytometry assay in HEK293A; format: cell-based; settings: HEK293A TEAD1-GFP-CHYSEL-mCherry sensor cells, 24 h, GFP signal by flow cytometry
Procedure: Degradation of TEAD1 was measured in HEK293A cells (Invitrogen R70507) expressing TEAD1-GFP and mCherry from a stably integrated bicistronic TEAD1-GFP-CHYSEL-mCherry construct. Reduction of the GFP signal measured by flow cytometry served as readout for TEAD1 degradation after degrader treatment.
Stable HEK293A sensor cells were maintained in complete growth medium (DMEM high Glucose+10% FCS+1% L-Glutamine+1% NEAA+1% NaPyr.+4 μg/mL blasticidin) with passaging performed twice per week. On Day 0, stable HEK293A sensor cells were seeded at 5,000 cells/well in a 96-well microtiter plate in 100 μL complete medium. On Day 1, cells were treated in duplicate with 10-point 1:3 dilution series of compound using the HP D300 Digital Dispenser (Tecan). DMSO concentrations were normalized across the plate to 0.1%. On Day 2, after 24 h of incubation at 37° C., treatment media was discarded, cells rinsed with 100 μL/well PBS and then detached using 40 μL trypsin/well for 5 min. Trypsin was neutralized with 100 μL/well PBS+20% FCS).
Flow cytometry was performed on the samples using the CytoFlex S (Beckman Coulter). Cell identification was then performed using forward (FSC) vs. side scatter (SSC) plots. Single cell discrimination was performed using SSC-Width (SSC-W) vs. SSC-Height (SSCH) plots. Median GFP values for 2,500 single cells were used to determine TEAD1 levels. Median GFP values from HEK293A were used as a background signal and thus defining 0% TEAD1 signal. Median GFP values from DMSO treated HEK293A TEAD1-GFP CHYSEL-mCherry were used to define 100%
TEAD1 signal for subsequent DC50 curves (concentration at 50% TAED1 degradation). GFP and RFP were read in the channels called FITC and PE, respectively. Concentration response curves plotting relative reduction of the GFP signal (measured by flow cytometry) versus 10 compound concentrations (starting concentration 10 μM, 3 fold dilution steps) of the compounds allowed generation of DC50 values.

[5] = tested on: YAP-dependent transcription in SF268-MCAT_Luc_dox-i-shYAPLevy (Clone 13) cells; experiment: YAP reporter gene activity assay (MCAT-Luc), SF268; format: cell-based; settings: Homo sapiens, SF-268; SF268 MCAT_Luc, 24 hrs
[6] = tested on: NCI-H2052 Tet-On shYAP_2371 pLenti6 MCAT_Luc cells; experiment: Proliferation assay (resazurin/AlamarBlue), NCI-H2052; format: cell-based; settings: Homo sapiens; NCI-H2052, 72 hours
[7] = tested on: MKN-45/Ubc-luc cells (unspecific inhibition of luciferase expression or activity); experiment: Reporter gene assay specificity control (Ubc-Luc), MKN-45; format: cell-based; settings: Homo sapiens; MKN-45/Ubc-luc specificity control, 24 hrs
Method in brief: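 MKN-45 cells stably carrying a ubiquitin C promoter–firefly luciferase construct, treated the day after seeding with eleven 2-fold compound dilutions (0.1% DMSO final) for 24 hrs at 37° C. Luminescence read 5 min after Steady Glo addition; cell-free background subtracted, as a control for nonspecific luciferase inhibition.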

Chain of Avi-humanTEAD4^217-434 / Cy5 labeled humanYAP^60-100 (Q15561 217-434): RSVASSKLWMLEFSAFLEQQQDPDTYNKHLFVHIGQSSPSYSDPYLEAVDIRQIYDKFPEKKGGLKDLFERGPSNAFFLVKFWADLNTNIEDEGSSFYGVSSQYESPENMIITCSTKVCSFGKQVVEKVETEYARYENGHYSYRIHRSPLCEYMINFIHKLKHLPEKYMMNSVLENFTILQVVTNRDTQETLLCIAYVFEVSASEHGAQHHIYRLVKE
Chain of TEAD1-GFP in HEK293A cells (P28347 whole entry): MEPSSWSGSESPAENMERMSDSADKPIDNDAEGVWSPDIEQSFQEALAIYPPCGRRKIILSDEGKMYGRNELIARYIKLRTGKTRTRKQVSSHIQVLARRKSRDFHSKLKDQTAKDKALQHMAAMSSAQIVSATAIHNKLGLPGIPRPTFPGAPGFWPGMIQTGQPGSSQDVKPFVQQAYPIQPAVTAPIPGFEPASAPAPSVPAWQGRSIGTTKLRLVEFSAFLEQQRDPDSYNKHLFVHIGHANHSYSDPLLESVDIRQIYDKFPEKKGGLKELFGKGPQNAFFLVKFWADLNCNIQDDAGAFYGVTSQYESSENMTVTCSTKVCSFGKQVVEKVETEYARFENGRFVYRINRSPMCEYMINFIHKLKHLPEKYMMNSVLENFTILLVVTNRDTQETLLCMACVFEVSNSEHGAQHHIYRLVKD

Row | Compound | pIC50 [2] | GI50 (MKN-45/Ubc-luc cells) [nM] | pIC50 [3] | DC50 [4] [nM] | pIC50 [5] | GI50 [6] [nM] | pIC50 [7] | GI50 [1] [nM]
1 | COc1ccc(C(N)=O)c(-c2c(Cl)c(F)cc3c2[C@H](C)[C@@](CN[C@H]2CC[C@H](C(=O)N4CCC(CC5CCN(CCn6cccc(CN7CCC(=O)NC7=O)c6=O)CC5)CC4)CC2)(c2ccccc2)O3)c1F (atropisomer, axis not shown) [Example 15, 2-((2S,3S,4S)-5-chloro-2-((((1r,4S)-4-(4-((1-(2-(3-((2,4-dioxotetrahydropyrimidin-1(2H)-yl)methyl)-2-oxopyridin-1(2H)-yl)ethyl)piperidin-4-yl)methyl)piperidine-1-carbonyl)cyclohexyl)amino)methyl)-6-fluoro-3-methyl-2-phenyl-2,3-dihydrobenzofuran-4-yl)-3-fluoro-4-methoxybenzamide] | 7.77 | 1550 | > 9.00 | 3 | 8.59 | 31 | < 5.70 | 85
2 | COc1ccc(C(N)=O)c(-c2c(Cl)c(F)cc3c2[C@H](C)[C@@](CN[C@H]2CC[C@H](C(=O)N[C@H]4CC[C@H](NC(=O)COc5cc(-c6scnc6C)ccc5CNC(=O)[C@@H]5C[C@@H](O)CN5C(=O)[C@@H](NC(=O)C5(F)CC5)C(C)(C)C)CC4)CC2)(c2ccccc2)O3)c1F (atropisomer, axis not shown) [Example 39, (2S,4R)-N-(2-(2-(((1S,4S)-4-((1S,4R)-4-((((2S,3S,4S)-4-(6-carbamoyl-2-fluoro-3-methoxyphenyl)-5-chloro-6-fluoro-3-methyl-2-phenyl-2,3-dihydrobenzofuran-2-yl)methyl)amino)cyclohexane-1-carboxamido)cyclohexyl)amino)-2-oxoethoxy)-4-(4-methylthiazol-5-yl)benzyl)-1-((S)-2-(1-fluorocyclopropane-1-carboxamido)-3,3-dimethylbutanoyl)-4-hydroxypyrrolidine-2-carboxamide] | 7.25 | > 2000 | 8.52 | 9 | 8.74 | 170 | < 5.70 | 63
3 | COc1ccc(C(N)=O)c(-c2c(Cl)c(F)cc3c2[C@H](C)[C@@](CN[C@H]2CC[C@H](C(=O)NCCOCCOCCOCCNC(=O)COc4cc(-c5scnc5C)ccc4CNC(=O)[C@@H]4C[C@@H](O)CN4C(=O)[C@@H](NC(=O)C4(F)CC4)C(C)(C)C)CC2)(c2ccccc2)O3)c1F (atropisomer, axis not shown) [Example 40, (2S,4R)-N-(2-((1-((1S,4r)-4-((((2S,3S,4S)-4-(6-carbamoyl-2-fluoro-3-methoxyphenyl)-5-chloro-6-fluoro-3-methyl-2-phenyl-2,3-dihydrobenzofuran-2-yl)methyl)amino)cyclohexyl)-1,15-dioxo-5,8,11-trioxa-2,14-diazahexadecan-16-yl)oxy)-4-(4-methylthiazol-5-yl)benzyl)-1-((S)-2-(1-fluorocyclopropane-1-carboxamido)-3,3-dimethylbutanoyl)-4-hydroxypyrrolidine-2-carboxamide] | 6.80 | > 20000 | 8.33 | 20 | 7.33 | 410 | < 4.70 | 1860
4 | COc1ccc(C(=O)N2CCC(OC3CCN(C(=O)[C@H]4CC[C@H](NC[C@]5(c6ccccc6)Oc6cc(F)c(Cl)c(-c7c(C(N)=O)ccc(OC)c7F)c6[C@@H]5C)CC4)CC3)CC2)cc1N1CCC(=O)NC1=O (atropisomer, axis not shown) [Example 2, 2-((2S,3S,4S)-5-chloro-2-((((1r,4S)-4-(4-((1-(3-(2,4-dioxotetrahydropyrimidin-1(2H)-yl)-4-methoxybenzoyl)piperidin-4-yl)oxy)piperidine-1-carbonyl)cyclohexyl)amino)methyl)-6-fluoro-3-methyl-2-phenyl-2,3-dihydrobenzofuran-4-yl)-3-fluoro-4-methoxybenzamide] | 7.89 | > 20000 | 8.85 | 2 | 9.05 | 48 | < 4.70 | 41

Further compounds by rising pIC50 [2], results first:

Row | pIC50 [2] | GI50 (MKN-45/Ubc-luc cells) [nM] | pIC50 [3] | DC50 [4] [nM] | pIC50 [5] | GI50 [6] [nM] | pIC50 [7] | Compound | GI50 [1] [nM]
5 | 7.89 | > 2000 | > 9.00 | 3 | 8.85 | 35 | < 5.70 | COc1ccc(C(N)=O)c(-c2c(Cl)c(F)cc3c2[C@H](C)[C@@](CN[C@H]2CC[C@H](C(=O)NCCCCCCCNC(=O)COc4ccc(C)c(N5CCC(=O)NC5=O)c4)CC2)(c2ccccc2)O3)c1F (atropisomer, axis not shown) [Example 23, 2-((2S,3S,4S)-5-chloro-2-((((1r,4S)-4-((7-(2-(3-(2,4-dioxotetrahydropyrimidin-1(2H)-yl)-4-methylphenoxy)acetamido)heptyl)carbamoyl)cyclohexyl)amino)methyl)-6-fluoro-3-methyl-2-phenyl-2,3-dihydrobenzofuran-4-yl)-3-fluoro-4-methoxybenzamide] | 74
6 | 8.40 | > 2000 | 8.80 | 1 | 9.42 | 15 | < 5.70 | COc1ccc(C(N)=O)c(-c2c(Cl)c(F)cc3c2[C@H](C)[C@@](CN[C@H]2CC[C@H](C(=O)N4CCC(CN5CCN(C(=O)COc6ccc(C)c(N7CCC(=O)NC7=O)c6)CC5)CC4)CC2)(c2ccccc2)O3)c1F (atropisomer, axis not shown) [Example 12, 2-((2S,3S,4S)-5-chloro-2-((((1r,4S)-4-(4-((4-(2-(3-(2,4-dioxotetrahydropyrimidin-1(2H)-yl)-4-methylphenoxy)acetyl)piperazin-1-yl)methyl)piperidine-1-carbonyl)cyclohexyl)amino)methyl)-6-fluoro-3-methyl-2-phenyl-2,3-dihydrobenzofuran-4-yl)-3-fluoro-4-methoxybenzamide] | 20
7 | 8.44 | 11000 | 8.72 | 0.6 | 9.52 | 15 | < 4.70 | COc1ccc(C(=O)N2CCC(CC3CCN(C(=O)[C@H]4CC[C@H](NC[C@]5(c6ccccc6)Oc6cc(F)c(Cl)c(-c7c(C(N)=O)ccc(OC)c7F)c6[C@@H]5C)CC4)CC3)CC2)cc1N1CCC(=O)NC1=O (atropisomer, axis not shown) [Example 1, 2-((2S,3S,4S)-5-chloro-2-((((1r,4S)-4-(4-((1-(3-(2,4-dioxotetrahydropyrimidin-1(2H)-yl)-4-methoxybenzoyl)piperidin-4-yl)methyl)piperidine-1-carbonyl)cyclohexyl)amino)methyl)-6-fluoro-3-methyl-2-phenyl-2,3-dihydrobenzofuran-4-yl)-3-fluoro-4-methoxybenzamide] | 14
8 | 8.49 | > 2000 | 8.62 | 0.5 | 9.27 | 8.5 | < 5.70 | COc1ccc(C(N)=O)c(-c2c(Cl)c(F)cc3c2[C@H](C)[C@@](CN[C@H]2CC[C@H](C(=O)N4CCC(CC5CCN(C(=O)COc6ccc(N7CCC(=O)NC7=O)cc6)CC5)CC4)CC2)(c2ccccc2)O3)c1F (atropisomer, axis not shown) [Example 25, 2-((2S,3S,4S)-5-chloro-2-((((1r,4S)-4-(4-((1-(2-(4-(2,4-dioxotetrahydropyrimidin-1(2H)-yl)phenoxy)acetyl)piperidin-4-yl)methyl)piperidine-1-carbonyl)cyclohexyl)amino)methyl)-6-fluoro-3-methyl-2-phenyl-2,3-dihydrobenzofuran-4-yl)-3-fluoro-4-methoxybenzamide] | 22
